# Values quoted from earlier work in patent US4686282A, “Immunotherapeutic polypeptide agents which block immune complex binding to immunoglobulin Fc receptors” (Immunetech, Inc., priority 1983, dated 1987).
# Ends that are not written are not given here.
# Legend:
# C1 = C1 (Homo sapiens, UniProt P02745+P02746+P02747); settings: compared with intact monomeric IgG; Prystowsky et al. 1981, Lukas et al. 1981
# [1] = test system: human monocyte IgG Fc receptors
# [2] = test system: granulocytes, monocytes and macrophages; settings: in vitro; literature
# [3] = test system: human and rodent mast cells; settings: Stanworth et al. 1979
# [4] = test system: local cutaneous allergic reaction (Prausnitz-Kustner); settings: Hamburger 1975
# [5] = molecular target: T1, IgE Fc receptor of human basophils (Homo sapiens, UniProt P12319); settings: Plummer et al. 1983
# T1 construct: host or cells: human basophils
# T1 sequence (P12319 26-257): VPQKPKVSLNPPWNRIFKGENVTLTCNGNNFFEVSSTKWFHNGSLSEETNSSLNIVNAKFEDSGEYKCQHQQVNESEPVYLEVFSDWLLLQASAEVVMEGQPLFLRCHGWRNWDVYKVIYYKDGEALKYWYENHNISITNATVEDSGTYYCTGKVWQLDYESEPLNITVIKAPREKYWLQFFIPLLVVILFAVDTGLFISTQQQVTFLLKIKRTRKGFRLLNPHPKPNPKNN
# T1 sequence (Q01362 1-244 partner): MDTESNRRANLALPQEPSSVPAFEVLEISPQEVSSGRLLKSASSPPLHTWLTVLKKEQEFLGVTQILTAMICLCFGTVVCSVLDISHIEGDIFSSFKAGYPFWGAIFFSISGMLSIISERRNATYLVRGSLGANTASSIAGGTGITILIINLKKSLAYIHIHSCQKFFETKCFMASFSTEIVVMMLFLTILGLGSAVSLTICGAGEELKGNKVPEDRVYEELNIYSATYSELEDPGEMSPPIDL
# T1 sequence (P30273 19-86 partner): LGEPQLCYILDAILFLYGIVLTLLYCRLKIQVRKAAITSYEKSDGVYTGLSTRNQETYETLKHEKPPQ
# [6] = humans, injection by the subcutaneous route
# lymphocytes = settings: Morgan, Huguli and Weigle 1982
# C1, sequence (P02745 23-245): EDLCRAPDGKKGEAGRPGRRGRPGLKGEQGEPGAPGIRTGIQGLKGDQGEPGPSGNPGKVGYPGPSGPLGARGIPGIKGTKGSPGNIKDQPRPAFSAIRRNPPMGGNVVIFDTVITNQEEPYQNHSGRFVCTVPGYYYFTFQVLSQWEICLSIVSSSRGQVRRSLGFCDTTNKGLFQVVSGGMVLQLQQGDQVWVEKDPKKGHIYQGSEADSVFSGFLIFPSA
# C1, sequence (P02746 28-253): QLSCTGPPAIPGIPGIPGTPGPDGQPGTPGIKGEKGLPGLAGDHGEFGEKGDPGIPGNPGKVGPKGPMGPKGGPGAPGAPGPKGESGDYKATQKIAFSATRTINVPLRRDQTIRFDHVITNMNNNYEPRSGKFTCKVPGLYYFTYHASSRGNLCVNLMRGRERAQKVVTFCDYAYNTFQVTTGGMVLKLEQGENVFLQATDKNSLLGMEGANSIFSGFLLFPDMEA
# C1, sequence (P02747 29-245): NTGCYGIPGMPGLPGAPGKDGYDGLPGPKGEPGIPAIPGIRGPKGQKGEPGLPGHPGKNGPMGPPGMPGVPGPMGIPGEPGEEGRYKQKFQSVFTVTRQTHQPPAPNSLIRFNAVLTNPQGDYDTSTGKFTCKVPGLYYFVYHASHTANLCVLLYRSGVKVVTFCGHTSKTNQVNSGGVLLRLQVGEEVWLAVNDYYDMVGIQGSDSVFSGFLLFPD
# C1, sequence (P00736 18-705 partner): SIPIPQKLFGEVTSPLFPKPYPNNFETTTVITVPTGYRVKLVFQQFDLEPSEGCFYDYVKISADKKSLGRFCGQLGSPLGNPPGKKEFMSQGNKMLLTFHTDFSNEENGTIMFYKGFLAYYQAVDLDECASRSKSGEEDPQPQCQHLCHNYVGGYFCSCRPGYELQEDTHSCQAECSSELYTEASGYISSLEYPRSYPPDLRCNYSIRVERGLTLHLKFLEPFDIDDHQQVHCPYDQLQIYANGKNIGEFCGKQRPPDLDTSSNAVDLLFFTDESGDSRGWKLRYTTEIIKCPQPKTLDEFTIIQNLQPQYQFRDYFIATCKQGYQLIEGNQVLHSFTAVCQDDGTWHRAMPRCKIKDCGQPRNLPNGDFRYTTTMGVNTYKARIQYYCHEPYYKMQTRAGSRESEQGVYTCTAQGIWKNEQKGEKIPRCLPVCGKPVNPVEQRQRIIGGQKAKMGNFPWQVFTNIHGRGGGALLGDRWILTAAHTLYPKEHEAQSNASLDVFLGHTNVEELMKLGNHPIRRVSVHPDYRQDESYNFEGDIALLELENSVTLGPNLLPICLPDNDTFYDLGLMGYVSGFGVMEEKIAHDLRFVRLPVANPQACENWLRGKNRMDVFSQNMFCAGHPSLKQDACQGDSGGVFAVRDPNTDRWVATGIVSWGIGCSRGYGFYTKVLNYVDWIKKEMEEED
# C1, sequence (P09871 16-688 partner): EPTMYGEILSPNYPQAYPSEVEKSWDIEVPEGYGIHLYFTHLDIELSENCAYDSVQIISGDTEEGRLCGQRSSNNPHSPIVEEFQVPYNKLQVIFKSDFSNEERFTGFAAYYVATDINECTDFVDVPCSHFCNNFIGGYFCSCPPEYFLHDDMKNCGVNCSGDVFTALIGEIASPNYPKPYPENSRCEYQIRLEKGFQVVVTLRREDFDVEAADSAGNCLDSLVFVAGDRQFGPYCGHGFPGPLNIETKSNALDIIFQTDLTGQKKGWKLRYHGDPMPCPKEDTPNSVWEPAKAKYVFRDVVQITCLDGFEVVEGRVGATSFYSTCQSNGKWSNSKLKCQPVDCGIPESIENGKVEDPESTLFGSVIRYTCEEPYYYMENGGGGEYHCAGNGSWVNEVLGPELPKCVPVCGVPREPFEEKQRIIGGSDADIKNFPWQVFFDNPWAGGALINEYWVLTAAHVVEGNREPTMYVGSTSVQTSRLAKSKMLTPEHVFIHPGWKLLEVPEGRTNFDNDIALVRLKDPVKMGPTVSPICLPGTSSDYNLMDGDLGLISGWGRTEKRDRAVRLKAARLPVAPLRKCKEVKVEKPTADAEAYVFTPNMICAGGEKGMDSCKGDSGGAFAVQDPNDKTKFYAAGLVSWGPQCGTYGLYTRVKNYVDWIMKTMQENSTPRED
substance,measurement,setting,value
Thr-Lys-Pro-Arg (TKPR; printed: Thr-Lys-Pro-Arg) [Tuftsin],inhibitors of C1-mediated hemolysis,C1,less active
same,inhibits human IgG binding to human monocyte IgG Fc receptors,[1]; Ratcliffe and Stanworth 1982 and ourselves,competitively inhibits
same,phagocytosis stimulating ability,[2],active at nanomolar concentrations
PRKTKGSGFFVF,degranulation of human and rodent mast cells,[3],able to cause degranulation
Asp-Ser-Asp-Pro-Arg (DSDPR; printed: Asp-Ser-Asp-Pro-Arg),inhibit a local cutaneous allergic reaction (Prausnitz-Kustner),[4],approximately 90%
same,block human IgE binding to basophil IgE Fc receptors,[5],up to 70%
same,inhibit systemic allergic disease,[6],inhibit systemic allergic disease
Val-Gln-Val-His-Asn-Ala-Lys-Thr-Lys-Pro-Arg-OH (VQVHNAKTKPR-OH),inhibitors of C1-mediated hemolysis,C1,approximately as active as inhibitors as intact monomeric IgG
Ac-Phe-Asn-Trp-Tyr-Val (Ac-FNWYV),inhibitors of C1-mediated hemolysis,C1,less active
QYDSTYR,block IgG binding to human monocyte IgG Fc receptors,[1]; Ratcliffe and Stanworth 1982,slightly block
FNWYVDGVQVHNAKTK,inhibitors of C1-mediated hemolysis,C1,less active
TISKAKGQPREPQVYTLPSREEM,nonspecific activation of lymphocytes,lymphocytes,ability to nonspecifically activate lymphocytes
GVQVHNAKTK,inhibitors of C1-mediated hemolysis,C1,approximately as active as inhibitors as intact monomeric IgG
